The source of these data is ChEMBL document CHEMBL5154819 (Eur J Med Chem, 2022).

Data set [1] deals with Mus musculus. Put plainly: Analgesic activity in acetic acid induced ICR mouse assessed as average writhing times at 6.25 mg/kg, iv administered for 15 mins followed by acetic acid injection and measured within 15 mins (reference value: 26.1 +/- 16.3). The format is functional. The note with it: time 30 min, 0.5 h.
Data set [2] has as its system Mus musculus. Put plainly: Analgesic activity in acetic acid induced ICR mouse assessed as average writhing times at 3.13 mg/kg, iv administered for 15 mins followed by acetic acid injection and measured within 15 mins (reference value: 26.1 +/- 16.3). Format: functional. As to conditions: time 30 min, 0.5 h.
Data set [3] concerns Mus musculus. Briefly: Antinociceptive activity in acetic acid induced ICR mouse assessed as inhibition effect at 50 mg/kg, iv administered for 15 mins followed by acetic acid injection and measured within 15 mins. Format: functional. The note with it: 0.5 h, time 30 min.
The test system of data set [4] is Mus musculus. Briefly: Analgesic activity in acetic acid induced ICR mouse assessed as average writhing times at 12.50 mg/kg, iv administered for 15 mins followed by acetic acid injection and measured within 15 mins (reference value: 26.1 +/- 16.3). The format is functional. The note with it: dose 12.5 mg/kg, time 30 min, 0.5 h. (In general: In writhing tests, fewer writhes than in controls are read as antinociception.)

Data set [5] deals with Mus musculus. Put plainly: Antinociceptive activity in acetic acid induced ICR mouse assessed as inhibition effect at 6.25 mg/kg, iv administered for 15 mins followed by acetic acid injection and measured within 15 mins. The format is functional. As to conditions: 0.5 h, time 30 min.
Data set [6] is described as follows: Aqueous solubility of the compound at pH 7.8. Format: physicochemical.
In data set [7] the test system is Mus musculus. Put plainly: Analgesic activity in acetic acid induced ICR mouse assessed as average writhing times at 25 mg/kg, iv administered for 15 mins followed by acetic acid injection and measured within 15 mins (reference value: 26.1 +/- 16.3). As to conditions: time 30 min, 0.5 h. The format is functional.
A further data set is filed under the species Rattus norvegicus. Put plainly: Antiinflammatory activity in carrageenan-induced Sprague-Dawley rat assessed as paw withdrawal threshold measured after 2.5 hrs by paw pressure test. Format: functional.
Data set [8] has as its system Mus musculus. Briefly: Antinociceptive activity in acetic acid induced ICR mouse assessed as inhibition effect at 25 mg/kg, iv administered for 15 mins followed by acetic acid injection and measured within 15 mins. Format: functional. As to conditions: 0.5 h, time 30 min.
Data set [9] has as its system Mus musculus. Put plainly: Antinociceptive activity in acetic acid induced ICR mouse assessed as inhibition effect at 12.50 mg/kg, iv administered for 15 mins followed by acetic acid injection and measured within 15 mins. The format is functional. The note with it: 0.5 h, time 30 min.
For data set [10], the system named is Mus musculus. Put plainly: Analgesic activity in iv dosed ICR mouse assessed as reduction in acetic acid induced writhing administered for 15 mins followed by acetic acid injection and measured within 15 mins. The format is functional. The note with it: 0.5 h, time 30 min.
Data set [11] relates to Mus musculus. Briefly: Analgesic activity in acetic acid induced ICR mouse assessed as average writhing times at 50 mg/kg, iv administered for 15 mins followed by acetic acid injection and measured within 15 mins (reference value: 26.1 +/- 16.3). The format is functional. As to conditions: time 30 min, 0.5 h.

On to `CCC(=O)[N-]S(=O)(=O)c1ccc(-c2c(-c3ccccc3)noc2C)cc1.[Na+]` [PARECOXIB SODIUM], for which the Activity was 22.2 in the data set on Mus musculus [1]; 21 with Mus musculus [2]; 13.7 in the data set with Mus musculus [4]; 10.1 in the data set on Mus musculus [7]; 2.4 with Mus musculus [11]. Also, in the data set with Mus musculus [3], the inhibition in vivo (usually the relative decrease from the control value, in per cent) at 50 mg/kg was 90.8%. For the same compound, the inhibition in vivo at 6.25 mg/kg with Mus musculus [5] amounted to 14.9%. In addition, the solubility (in general, the dissolved amount per volume that the medium holds) in data set [6] turned out to be 18 mg/mL. In addition, the ED50 (as a rule, the dose that gives a 50% effect, or the effect in half of the subjects) in the data set listed under Rattus norvegicus was determined as 22.7 mg/kg; in the data set with Mus musculus [10], 15.7 mg/kg. Also, the inhibition in vivo at 25 mg/kg with Mus musculus [8] was 61.3%. For the same compound, in the data set on Mus musculus [9], the inhibition in vivo at 12.5 mg/kg was 47.5%.
